{"source": "patent US7718664B2", "about": "“Anti-itching agent” (Toray Industries, Inc., priority 2004, dated 2010)", "key": {"Male ddY mice": {"system": "Male ddY mice", "test": "Inhibitory effect of scratching behavior induced by Substance-P", "type": "in vivo, mouse", "conditions": "test drug sc 30 minutes before intradermal Substance-P, scratching counted for 30 minutes", "procedure": "Male ddY mice were purchased when they were 4 weeks old, and used in the experiments when they became 5 weeks old after acclimation. One day before experiment, each mouse had hair on the rostral back skin clipped with a hair clipper. Each of test drugs was dissolved in 10% DMSO. Either the test drug or vehicle was administered subcutaneously into the rostral back of the mouse, and 30 minutes later, Substance-P (250 nmom/site) dissolved in PBS (phosphate buffered saline) was administered intradermally into the hair-clipped skin at a dose of about 50 μL. Immediately thereafter, each mouse was put into a cage for observation (10*14*22 cm), and the subsequent behavior of each mouse was recorded by an unattended video camera for 30 minutes. The video tape was replayed, and the number of times that the mouse scratched at or around the Substance-P-administered site with its hind limb was counted. In the experiment, each group consisted of 8 mice. In cases where there was a statistically significant difference in the mean number of scratching between the solvent-administered group and the test drug-administered group, the test drug was judged to have an antipruritic effect. The results are shown in terms of the predicted administration dosage at which the number of scratching was reduced to half of that in the solvent-administered group (Table 5)."}, "[1]": {"conditions": "epidurally or intrathecally administered; cited from earlier work"}, "[2]": {"conditions": "in vivo; cited from earlier work"}}, "note": "Structures can show the parent of a compound that is named as a salt.", "data": [{"compound": "O=C1c2ccccc2C(=O)N1[C@@H]1CC[C@@]2(O)[C@H]3Cc4ccc(O)c5c4[C@@]2(CCN3CC2CC2)[C@H]1O5", "note": "[Compound 1, N-[(17-cyclopropylmethyl)-4,5α-epoxy-3,14-dihydroxy-morphinan-6β-yl]-phthalimide hydrochloric acid salt]", "values": [{"measurement": "ED50 (predicted administration dosage at which the number of scratching was reduced to half of that in the solvent-administered group)", "setting": "Male ddY mice", "result": "0.0034 mg/kg, sc"}]}, {"compound": "C=CCN1CC[C@]23c4c5ccc(O)c4O[C@H]2[C@H](N2C(=O)c4ccccc4C2=O)CC[C@@]3(O)[C@H]1C5", "note": "[Compound 2, N-[(17-allyl)-4,5α-epoxy-3,14-dihydroxy-morphinan-6β-yl]-phthalimide tartaric acid salt]", "values": [{"measurement": "ED50 (predicted administration dosage at which the number of scratching was reduced to half of that in the solvent-administered group)", "setting": "Male ddY mice", "result": "0.32 mg/kg, sc"}]}, {"compound": "O=C1C2=C(CCCC2)C(=O)N1[C@@H]1CC[C@@]2(O)[C@H]3Cc4ccc(O)c5c4[C@@]2(CCN3CC2CC2)[C@H]1O5", "note": "[Compound 3, N-[(17-cyclopropylmethyl)-4,5α-epoxy-3,14-dihydroxy-morphinan-6β-yl]-3,4,5,6-tetrahydrophthalimide tartaric acid salt]", "values": [{"measurement": "ED50 (predicted administration dosage at which the number of scratching was reduced to half of that in the solvent-administered group)", "setting": "Male ddY mice", "result": "0.0033 mg/kg, sc"}]}, {"compound": "O=C1c2ccccc2S(=O)(=O)N1[C@@H]1CC[C@@]2(O)[C@H]3Cc4ccc(O)c5c4[C@@]2(CCN3CC2CC2)[C@H]1O5", "note": "[Compound 4, [N-(17-cyclopropylmethyl)-4,5α-epoxy-3,14-dihydroxy-morphinan-6β-yl]-O-sulfonebenzimide tartaric acid salt]", "values": [{"measurement": "ED50 (predicted administration dosage at which the number of scratching was reduced to half of that in the solvent-administered group)", "setting": "Male ddY mice", "result": "0.0081 mg/kg, sc"}]}, {"compound": "O=C1c2ccccc2CN1[C@@H]1CC[C@@]2(O)[C@H]3Cc4ccc(O)c5c4[C@@]2(CCN3CC2CC2)[C@H]1O5", "note": "[Compound 5, 2-[(17-cyclopropylmethyl)-4,5α-epoxy-3,14-dihydroxy-morphinan-6β-yl]-2,3-dihydro-isoindole-1-one tartaric acid salt]", "values": [{"measurement": "ED50 (predicted administration dosage at which the number of scratching was reduced to half of that in the solvent-administered group)", "setting": "Male ddY mice", "result": "0.015 mg/kg, sc"}]}, {"compound": "O=C1c2ccccc2C(=O)N1[C@@H]1CC[C@@]2(O)[C@H]3Cc4ccc(O)c5c4[C@@]2(CCN3CC2CC2)[C@H]1O5", "note": "[Compound 6, N-[(17-cyclopropylmethyl)-4,5α-epoxy-3,14-dihydroxy-morphinan-6β-yl]-phthalimide]", "values": [{"measurement": "ED50 (predicted administration dosage at which the number of scratching was reduced to half of that in the solvent-administered group)", "setting": "Male ddY mice", "result": "0.0029 mg/kg, sc"}]}, {"compound": "CN(C(=O)c1ccccc1)[C@@H]1CC[C@@]2(O)[C@H]3Cc4ccc(O)c5c4[C@@]2(CCN3CC2CC2)[C@H]1O5", "note": "[Compound 7, 17-cyclopropylmethyl-4,5α-epoxy-3,14-dihydroxy-6β-(N-methylbenzamido)-morphinan hydrochloric acid salt, reference compound]", "values": [{"measurement": "ED50 (predicted administration dosage at which the number of scratching was reduced to half of that in the solvent-administered group)", "setting": "Male ddY mice", "result": "0.55(Reference Example) mg/kg, sc"}]}, {"compound": "CN1CC[C@]23c4c5ccc(O)c4O[C@H]2[C@@H](O)C=C[C@H]3[C@H]1C5", "note": "[morphine]", "values": [{"measurement": "induction of pruritus", "setting": "[1]", "result": "induced"}]}, {"compound": "C=C1CC[C@@]2(O)[C@H]3Cc4ccc(O)c5c4[C@@]2(CCN3CC2CC2)[C@H]1O5", "note": "[nalmefene]", "values": [{"measurement": "effect on severe pruritus in cholestasia with hepathopathy", "setting": "[2]", "result": "suppressed"}]}]}
